Experimental data from patent publication US5792635A, “Method of inhibiting the sodium/proton exchanger NHE3 and method of inhibiting growth by administering squalamine” (priority 1995, dated 1998).
Entries after “also recorded” stand apart in the source; their conditions may differ.

Legend:
[1] = target: rabbit NHE3 (Oryctolagus cuniculus, UniProt P26432); settings: 5 μg/ml
Procedure: Internal pH was measured either following acid loading or in the absence of an acid-loading challenge, with the results shown in FIGS. 1A and 1B.
Specifically, PS120 fibroblasts transfected with rabbit NHE3 were grown in supplemented Dulbecco's-modified Eagle's medium as described by Levine et al., J. Biol. Chem. 268, 1993, 25527-25535. […] For cells not acid-preloaded, the actual internal pH value was monitored as a function of time following addition of squalamine, with the results depicted in FIG. 1B.
PS120 fibroblasts transfected with rabbit NHE3 were grown and acid preloaded by exposure to 40 mM NH4 Cl as described above in conjunction with FIGS. 1A and 1B. Internal cellular pH changes expressed as the rate of pH recovery as a function of restored extracellular sodium ion concentration following exposure to 10 μg/ml of the compound were assayed with the fluorescent dye BCECF-AM as described above.

[2] = test system: bacteria, fungi and protozoa; settings: in words; cited from earlier work
[3] = test system: rabbit NHE1; assay: Inhibition of NHE1 in PS120 fibroblasts transfected with rabbit NHE1, internal pH by BCECF-AM; type: cell-based; settings: 5 μg/ml; acid-preloaded; FIG. 2A
Procedure: (§1) PS120 fibroblasts transfected with rabbit or human NHE1 were grown as described above.

[4] = test system: vitelline capillaries of 3- to 5-day chick embryo; assay: Chick embryo vitelline capillary regression assay; type: in vivo
Procedure: Using the chick embryo vitelline capillaries assay, compounds were tested for their ability to induce capillary regression. Each compound was applied in 0.1 ml of 15% Ficol 400 and PBS onto the embryo, and vascular regression was assessed after 60 minutes.
The 3-day chick embryo consists of an embryonic disc from which numerous vessels emerge and return, forming a "figure 8"-shaped structure--the embryo in the center with vascular loops extending outward over both poles. […] Following a lag period of around 15 minutes, the constriction of continuity between capillary and secondary vessels, generally on the "venous" side, was observed. Continued pulsatile blood flow progressed, resulting in a "swelling" of the blind tube, followed by a pinching off of the remaining connection and formation of an enclosed vascular sac resembling a "blood island." This process progressed until only the largest vessels remained intact.

[5] = test system: human coronary artery smooth muscle; assay: Proliferation of human coronary artery smooth muscle in vitro; type: cell-based; settings: FIG. 15
Description: Aminosterols of the invention may also have utility in inhibiting the growth factor mediated proliferation of smooth muscle within the artery. Following coronary angioplasty, reocclusion commonly occurs, secondary to reparative proliferation of the vascular smooth muscle within the wall of the surgically manipulated blood vessel. This process generally takes place over the course of 7-10 days. To evaluate whether an agent could prevent the growth factor mediated proliferation of smooth muscle within the artery, compound 1436 was evaluated in vitro for its effect on the proliferation of human coronary artery smooth muscle. Results for compound 1436 are shown in FIG. 13, and those for squalamine are shown in FIG. 14, with FIG. 15 being a composite logarithmic plot.

[6] = test system: B16 melanoma; assay: Suppression of growth of B16 melanoma in C57B mice; type: in vivo, mouse
Procedure: The growth of B16 melanoma in C57B mice is dependent upon neovascularization.
Using the growth of B16 melanoma cells in C57B mice, a recognized model for the evaluation of inhibitors of angiogenesis on the growth of cancers, the effects of subcutaneous, intraperitoneal and oral administration of squalamine were evaluated.

[7] = test system: B16 melanoma; assay: Synergistic inhibition of tumor growth, B16 melanoma in mice; type: in vivo, mouse; settings: squalamine 15 mg/kg/day; compound 1436 tolerable schedule
Procedure: Based on the idea that tumor growth involves both the clonal expansion of a malignant cell along with the development of a supporting vascular supply, a combination of compound 1436 with squalamine was tested to determine whether it would achieve a synergistic effect on solid tumor growth. This concept was evaluated in the B16 melanoma model.
Animals were implanted with B16 melanoma followed by treatment with compound 1436 or 1256 administered in a combined schedule or separately. […] Thus, a combination of these two compounds achieves a therapeutic benefit in tumors dependent on neovascularization that may prevent metastatic spread.

[8] = test system: B16; assay: Cytostatic activity against B16 in culture; type: cell-based, murine; settings: except at very high concentrations
[9] = test system: chick chorioallantoic membrane; assay: Chorioallantoic membrane (CAM) model, inhibition of capillary growth; type: in vivo
Description: The growing capillaries within the chorioallantoic membrane model (CAM model) have been used as a system in which to evaluate the effect of agents on their potential to inhibit new vessel growth. Neovascularization occurs most aggressively over the first week of embryonic development. Thereafter capillary growth is characterized by principally "elongation" rather than "de novo" formation.
In the standard assay, agents are applied locally to a region of the embryo over which neovascularization will occur. Agents are assessed by their ability to inhibit this process, as evaluated by visual examination about 7 days after application. […] The assay utilized is described in detail in Auerbach et al., Pharm. Ther. 51, 1991, 1-11.

[10] = test system: melanoma 1205Lu; assay: Suppression of growth of human melanoma 1205Lu in RAG-1 mice; type: in vivo, mouse (human tumor)
Description: As apparent from FIG. 5, melanoma 1205Lu develops aggressively in RAG-1 mice after implantation.

[11] = test system: human T-cells; assay: Inhibition of PHA-stimulated human lymphocytes; type: cell-based; settings: 10 μg/ml
Description: Results are tabulated below.

[12] = test system: human NHE1; assay: Inhibition of NHE1 in PS120 fibroblasts transfected with human NHE1, internal pH by BCECF-AM; type: cell-based; settings: 5 μg/ml; acid-preloaded; FIG. 2B
Procedure: as §1

[13] = test system: human umbilical venous endothelial cells; assay: LPS-/TNF-α-induced neutrophil adherence; type: cell-based; settings: 10 μg, 1.0 μg, or 0.1 μg; three different subjects
Description: Methods 109, 1988, 175-184.

[14] = test system: Xenopus tadpoles; assay: Tadpole assay; settings: 10 μg/ml

Sequence of rabbit NHE3 (P26432 30-832): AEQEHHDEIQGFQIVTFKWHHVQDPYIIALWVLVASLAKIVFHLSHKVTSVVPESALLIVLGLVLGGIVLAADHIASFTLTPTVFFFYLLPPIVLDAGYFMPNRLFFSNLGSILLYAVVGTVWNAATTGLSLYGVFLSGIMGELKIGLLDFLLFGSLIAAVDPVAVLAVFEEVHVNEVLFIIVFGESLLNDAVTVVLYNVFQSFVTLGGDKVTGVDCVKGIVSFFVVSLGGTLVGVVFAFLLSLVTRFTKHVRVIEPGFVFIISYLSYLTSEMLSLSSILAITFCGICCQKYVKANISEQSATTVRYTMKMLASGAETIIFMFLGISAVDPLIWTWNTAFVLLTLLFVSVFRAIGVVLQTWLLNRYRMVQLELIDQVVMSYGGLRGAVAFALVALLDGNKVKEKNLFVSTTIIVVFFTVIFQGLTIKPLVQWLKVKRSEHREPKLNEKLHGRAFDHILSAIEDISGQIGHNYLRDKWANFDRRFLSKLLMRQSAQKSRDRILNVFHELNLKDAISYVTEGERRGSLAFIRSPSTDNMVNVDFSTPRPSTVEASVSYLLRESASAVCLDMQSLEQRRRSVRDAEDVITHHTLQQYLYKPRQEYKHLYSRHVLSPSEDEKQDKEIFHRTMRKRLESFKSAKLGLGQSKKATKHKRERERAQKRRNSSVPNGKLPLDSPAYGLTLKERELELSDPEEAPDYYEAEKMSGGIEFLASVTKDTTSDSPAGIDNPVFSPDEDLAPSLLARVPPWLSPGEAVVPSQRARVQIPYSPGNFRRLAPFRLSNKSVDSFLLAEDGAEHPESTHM

Question: Which results are given for `CC(C)[C@@H](CC[C@@H](C)[C@H]1CC[C@H]2[C@@H]3[C@H](O)C[C@H]4C[C@@H](NCCCNCCCCN)CC[C@]4(C)[C@H]3CC[C@]12C)OS(=O)(=O)O` [Squalamine]?
Answer: inhibition of NHE3 (Km and Vmax) ([1]; FIG. 1A, 1B): inhibited NHE3 with respect to proton concentration at both Km and Vmax levels; resting internal pH ([1]; not acid-preloaded, FIG. 1B): the resting pH of these cells was also inhibited; antibiotic activity [2]: broad-spectrum antibiotic, killing bacteria, fungi and protozoa; inhibitory activity against rabbit NHE1 [3]: no inhibitory activity; effect on vitelline capillaries ([4]; 3- to 5-day chick embryos): disrupt vitelline capillaries; lag period before constriction between capillary and secondary vessels ([4]; 3-day chick embryo): around 15 minutes; activity in vitelline capillary regression assay ([4]; Table 5): especially active; embryonic heart beat ([4]; chick embryo): continued to beat vigorously; hemorrhage ([4]; chick embryo): No hemorrhage was seen; hemolysis ([4]; chick embryo, microscopic): absence of hemolysis; suppression of growth of human coronary artery smooth muscle [5]: suppress in vitro the growth of human coronary artery smooth muscle; body weight and hematologic parameters ([6]; B16-bearing C57B mice): no significant depression; suppression of B16 tumor volume ([6]; intraperitoneal, FIG. 4B): dose-dependent suppression of tumor volume; suppression of B16 tumor volume ([6]; oral, FIG. 4C): dose-dependent suppression of tumor volume; suppression of B16 tumor volume ([6]; subcutaneous, FIG. 4A): dose-dependent suppression of tumor volume; effect of single agent versus combination [7]: Neither administration of squalamine at 15 mg/kg/day nor compound 1436 alone in a tolerable schedule could achieve this effect; cytostatic activity against B16 in culture [8]: minimal cytostatic activity; positive (fraction printed under Percentage positive) ([9]; 13-day embryo, 5.0 μg applied): 0/26; anti-angiogenic activity in CAM ([9]; in words): potent but specific inhibitory activity, equal in potency to the most active compounds described to date in the literature; inhibitory effect on 13-day chick ([9]; ten times 0.65 μg, 13-day old chick): no inhibitory effect; suppression of melanoma 1205Lu growth ([10]; 10, 20, 40 mg/kg/d, FIG. 5): suppress the growth of melanoma 1205Lu in RAG-1 mice in a dose-dependent fashion; reversibility after cessation of treatment ([10]; RAG-1 mice): reversible; inhibition of blast transformation, in words [11]: Some effect; inhibitory activity against human NHE1 [12]: no inhibitory activity; inhibition of neutrophil adherence [13]: no inhibition; death / lethality time [14]: ≤ 2 h; observed response in tadpole ([14]; stage 59-60 Xenopus): blood flow through the capillaries of the tail shut down; also recorded: unaltered blood flow through the fine capillaries of the hands and feet; also recorded: common vascular occlusive effect; also recorded: Vascular occlusion in fine capillaries of tail. No effect on vascular flow through hands or feet
